Like-named read-outs stand apart in the source and are kept apart here.

The values below come from patent publication US6613784B1, “Nitroxyderivatives having antinflammatory, analgesic and antithrombotic activity” (Nicox S.A., priority 1999, dated 2003).

Test [1] relates to rabbit corpus cavernosum smooth muscle. In words: Inhibition of smooth muscle contraction, rabbit corpus cavernosum in organ bath. Set-up: species or system New Zealand White Rabbits. The note with it: Oryctolagus cuniculus, pre-contracted with phenylephrine (10 μM). Here is the method:
(§1) New Zealand White Rabbits (2.0-2.5 kg) were killed by cervical dislocation, cavernosal tissue (corpus canvernosus) and aorta excised.
(§2) The tissue was mounted in organ baths for recording of isometric tension, according to the method described by Khan MA et al (BJU Int. 1999 84(6):720-4). Tissues were pre-contracted with phenylephrine (10 μM) and relaxation responses to carbachol assessed in the presence of the compound to be tested.
(§3) The compound of the invention used in the assay was 2-acetyloxybenzoic acid 6-(nitroxymethyl)-2-pyridinylmethyl ester hydrochloride (NCX 4050), which synthesis is described in preceding example 1.
(§4) The reference compound was 2-acetoxybenzoic acid (3-nitroxymethyl)phenyl ester of formula [drawing 34]

In test [2] the test system is human vascular smooth cell proliferation. In words: Inhibition of smooth muscle cell proliferation (3H-thymidine). The settings on record: 10% FCS. The format is cell-based. Here is the method:
Human saphenous veins were cultured by standard explant methods (J. Cardiovasc., Pharmacol. 1999, 33(2), 204-11). Tissues were collected into sterile pots containing PBS, penicillin and streptomycin. Under sterile tissue culture conditions, tissues were cut into small pieces (approximately 1 mg weight) and placed into a standard culture medium containing 20% fetal calf serum (FCS) for several days (medium changed every 2-4 days). ^3H-thymidine was measured in the DNA fraction of cells cultured into 48 well plates. Cells were cultured to confluence in the medium containing 10% FCS. Cells were deprived of serum for 24 h before the addition of 10% FCS, together with different concentration of steroids. After 24 h, ^3H-thymidine was added to the cells for 4 h. Cells were washed with phosphate buffered saline and ethanol. DNA was extracted with sodium hydroxide solution and the ^3H material counted by scintillation. The data represents observations made in triplicate wells.
Table 2 reports results obtained on the inhibitory effect of the tested compounds on human vascular smooth cell proliferation.

The test system of test [3] is rabbit aorta smooth muscle. The test can be described thus: Inhibition of smooth muscle contraction, rabbit aorta in organ bath. Details: species or system New Zealand White Rabbits. The note with it: Oryctolagus cuniculus, pre-contracted with phenylephrine (10 μM). How it is done: as §1, §2, §3, §4
Setting [4] is: concentration (log M) −4, human saphenous vein cells.
[5] abbreviates: concentration (log M) −5, human saphenous vein cells.

Regarding `CC(=O)Oc1ccccc1C(=O)Oc1cccc(CO[N+](=O)[O-])c1` [NCX 4016, 2-acetoxybenzoic acid (3-nitroxymethyl)phenyl ester], the inhibition at 10 µM in test [1] (concentration (log M) −5, read-out: % inhibition rabbit corpus cav) worked out at 14%; in test [3] (concentration (log M) −5, read-out: % inhibition rabbit aorta) it was 18%. In addition, the “% inhibition cell proliferation” value is reported as 60% in test [2] (setting [4]) and 43% in test [2] (setting [5]). For the same molecule, in test [3] (concentration (log M) −4), the inhibition at 100 µM amounted to 20%.
With `CC(=O)Oc1ccccc1C(=O)OCc1cccc(CO[N+](=O)[O-])n1.Cl` [NCX 4050, 2-Acetyloxybenzoic Acid 6-(Nitroxymethyl)-2-pyridinylmethyl Ester Chlorhydrate], the inhibition at 10 µM is 85% in test [1] (read-out: % inhibition rabbit corpus cav, concentration (log M) −4); 63% in test [1] (read-out: % inhibition rabbit corpus cav, concentration (log M) −5); 80% in test [3] (read-out: % inhibition rabbit aorta, concentration (log M) −5). For the same molecule, the entries for the “% inhibition cell proliferation” value in test [2] (setting [4]) and in test [2] (setting [5]) were 95% and 82%, respectively.
